Experimental data as given in US7452905B2, “Phenylalanine derivatives” (Ajinomoto Co., Inc., priority 2000, dated 2008).

Each compound was assayed against T1, integrin α4 β1 (Homo sapiens, UniProt P05556+P13612) (assay: VCAM antagonist activity (VCAM-1/α4β1 binding assay), Jurkat cells binding to VCAM-1). Conditions: Jurkat cells binding to recombinant human VCAM-1; 50% binding inhibition; read-out: Antagonistic Activity IC50 α 4 β 1/VCAM.
T1 construct: cell strain Jurkat (ATCC TIB-152) of human T cells, known to express integrin α4 β1; endogenous in cells; host or cells: Jurkat (ATCC TIB-152)
T1 sequence (P13612 34-1032): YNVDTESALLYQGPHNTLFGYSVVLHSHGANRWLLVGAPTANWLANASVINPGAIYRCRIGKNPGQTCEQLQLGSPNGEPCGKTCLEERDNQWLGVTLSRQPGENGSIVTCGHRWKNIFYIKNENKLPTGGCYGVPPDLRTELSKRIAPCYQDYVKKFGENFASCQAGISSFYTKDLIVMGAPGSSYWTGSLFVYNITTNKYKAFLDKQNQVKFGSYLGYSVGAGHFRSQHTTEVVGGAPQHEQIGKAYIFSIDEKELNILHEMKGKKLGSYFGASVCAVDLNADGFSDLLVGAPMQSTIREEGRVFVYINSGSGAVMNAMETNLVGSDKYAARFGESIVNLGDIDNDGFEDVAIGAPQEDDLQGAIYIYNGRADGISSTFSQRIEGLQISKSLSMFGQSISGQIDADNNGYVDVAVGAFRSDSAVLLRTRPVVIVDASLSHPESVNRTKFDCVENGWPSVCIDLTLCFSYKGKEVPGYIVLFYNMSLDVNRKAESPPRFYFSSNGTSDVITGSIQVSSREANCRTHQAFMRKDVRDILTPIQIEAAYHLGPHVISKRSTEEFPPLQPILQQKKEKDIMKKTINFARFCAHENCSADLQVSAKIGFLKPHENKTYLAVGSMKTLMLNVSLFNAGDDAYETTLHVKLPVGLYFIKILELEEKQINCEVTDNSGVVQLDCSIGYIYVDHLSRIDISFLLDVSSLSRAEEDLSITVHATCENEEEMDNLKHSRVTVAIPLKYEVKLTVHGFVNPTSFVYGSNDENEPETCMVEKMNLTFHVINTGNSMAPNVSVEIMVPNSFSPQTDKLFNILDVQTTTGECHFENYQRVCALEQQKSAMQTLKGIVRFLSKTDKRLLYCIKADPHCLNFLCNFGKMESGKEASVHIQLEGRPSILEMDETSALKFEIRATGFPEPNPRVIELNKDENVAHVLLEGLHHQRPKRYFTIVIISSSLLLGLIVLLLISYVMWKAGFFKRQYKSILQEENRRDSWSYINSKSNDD
T1 sequence (P05556 21-798): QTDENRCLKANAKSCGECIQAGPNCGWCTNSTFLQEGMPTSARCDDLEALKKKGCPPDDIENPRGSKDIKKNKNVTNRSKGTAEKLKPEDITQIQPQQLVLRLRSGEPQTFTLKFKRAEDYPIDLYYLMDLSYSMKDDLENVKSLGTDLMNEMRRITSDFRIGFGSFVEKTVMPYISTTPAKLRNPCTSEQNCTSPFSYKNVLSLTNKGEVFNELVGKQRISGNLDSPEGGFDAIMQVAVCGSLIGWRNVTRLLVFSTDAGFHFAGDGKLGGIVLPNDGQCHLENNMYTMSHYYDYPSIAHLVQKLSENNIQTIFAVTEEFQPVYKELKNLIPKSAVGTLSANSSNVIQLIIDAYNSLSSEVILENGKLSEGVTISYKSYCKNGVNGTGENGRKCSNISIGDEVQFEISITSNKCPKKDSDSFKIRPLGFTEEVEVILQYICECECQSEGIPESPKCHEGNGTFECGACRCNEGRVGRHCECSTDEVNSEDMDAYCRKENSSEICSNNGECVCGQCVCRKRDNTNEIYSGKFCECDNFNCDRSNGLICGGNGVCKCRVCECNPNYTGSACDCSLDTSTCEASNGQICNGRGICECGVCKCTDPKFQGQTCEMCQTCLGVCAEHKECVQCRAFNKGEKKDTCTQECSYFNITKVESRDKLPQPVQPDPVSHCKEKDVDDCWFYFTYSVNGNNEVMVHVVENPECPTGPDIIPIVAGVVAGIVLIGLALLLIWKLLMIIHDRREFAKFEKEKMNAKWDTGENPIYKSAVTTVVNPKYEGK
Format: cell-based
Procedure: VCAM Antagonist Activity (VCAM-1/α4β1 Binding Assay)
The capacity of a test substance antagonistic to the binding of cell strain Jurkat (ATCC TIB-152) of human T cells, known to express integrin α4 β1, to VCAM-1 was determined. 100 μl/well of a solution (500 ng/ml) of recombinant human VCAM-1 (R & D systems) solution diluted with buffer A (0.1 M NaHCO3, pH 9.6) was added to a micro titer plate having 96 wells (Nunc Maxisorp). After the incubation at 4° C. overnight, unbound VCAM-1 was removed by washing once with PBS. After completion of the washing, a buffer (buffer B) obtained by diluting Block Ace (Dainippon Pharmaceutical Co., Ltd.) with PBS to ¼ concentration was added in an amount of 150 μl/well. After the incubation at room temperature for 1 hour, buffer B was removed and the plate was washed with PBS once.
Jurkat cells were washed with Dulbecco modified Eagle medium (SIGMA, hereinafter referred to as “DMEM”) twice and then incubated in DMEM containing 10 μg/ml of Calcein-AM (Wako Pure Chemical Industries, Ltd.) at 37° C. in dark place for 30 minutes to label with fluorescence. The cells were again suspended in a binding buffer (20 mM HEPES, DMEM containing 0.1% BSA).
50 μl of a test substance of various concentrations obtained by the dilution with the binding buffer was added to the plate. Immediately thereafter, 50 μl (final volume: 100 μl well) of the fluorescent Jurkat cells (4×10^6 cells/ml) were added thereto, and they were incubated at room temperature for 30 minutes. After the shaking on a plate shaker (IKA MTS-4) at 800 rpm for 30 seconds, the solution was immediately removed to remove the unbound cells. The fluorescence quantity of the bound cells remaining in the wells was determined with a fluorescent plate reader (Wallac 1420 ARVO multi-label counter) (filter excitation wave length: 485 nm, emission wave length: 535 nm). The fluorescent strength thus obtained is proportional to the number of Jurkat cells bound to VCAM-1 and remaining on the plate. The binding rate of each test material in various concentrations was determined while the fluorescent strength of the test material-free well was determined to be 100%. The concentration IC50 for the 50% binding inhibition was calculated.

Row | Structure (SMILES) | IC50
1 | O=C(N[C@@H](Cc1ccc(N2C(=O)c3ccccc3C2=O)cc1)C(=O)O)c1c(Cl)cccc1Cl [Example 1] | 210 nM
2 | Cc1ccc2c(c1)C(=O)N(c1ccc(C[C@H](NC(=O)c3c(Cl)cccc3Cl)C(=O)O)cc1)C2=O [Example 6] | 240 nM
3 | O=C(N[C@@H](Cc1ccc(N2C(=O)c3ccc([N+](=O)[O-])cc3C2=O)cc1)C(=O)O)c1c(Cl)cccc1Cl [Example 9] | 170 nM
4 | O=C(N[C@@H](Cc1ccc(N2C(=O)Cc3ccccc3C2=O)cc1)C(=O)O)c1c(Cl)cccc1Cl [Example 15] | 740 nM
5 | O=C(N[C@@H](Cc1ccc(N2C(=O)c3cccc4cccc(c34)C2=O)cc1)C(=O)O)c1c(Cl)cccc1Cl [Example 16] | 1100 nM
6 | O=C(N[C@@H](Cc1ccc(N2Cc3ccccc3C2=O)cc1)C(=O)O)c1c(Cl)cccc1Cl [Example 17] | 1900 nM
7 | O=C(N[C@@H](Cc1ccc(N2CC=CC2=O)cc1)C(=O)O)c1c(Cl)cccc1Cl [Example 25] | 5000 nM
8 | O=C(N[C@@H](Cc1ccc(N2CC=CCC2=O)cc1)C(=O)O)c1c(Cl)cccc1Cl [Example 26] | 5300 nM
9 | O=C(N[C@@H](Cc1ccc(N2CC=CCCC2=O)cc1)C(=O)O)c1c(Cl)cccc1Cl [Example 27] | 2800 nM
10 | Cc1ccc(C)c2c1C(=O)N(c1ccc(C[C@H](NC(=O)c3c(Cl)cccc3Cl)C(=O)O)cc1)C2=O [Example 30] | 450 nM
11 | CN(C)C(=O)c1ccc2c(c1)C(=O)N(c1ccc(C[C@H](NC(=O)c3c(Cl)cccc3Cl)C(=O)O)cc1)C2=O [Example 33] | 260 nM
12 | O=C(N[C@@H](Cc1ccc(N2C(=O)C3=C(CCCC3)C2=O)cc1)C(=O)O)c1c(Cl)cccc1Cl [Example 37] | 140 nM
13 | O=C(N[C@@H](Cc1ccc(N2C(=O)C3=C(SCCS3)C2=O)cc1)C(=O)O)c1c(Cl)cccc1Cl [Example 38] | 220 nM
14 | O=C(N[C@@H](Cc1ccc(N2C(=O)[C@@H]3CCCC[C@H]3C2=O)cc1)C(=O)O)c1c(Cl)cccc1Cl [Example 40] | 240 nM
15 | O=C(N[C@@H](Cc1ccc(N2C(=O)[C@@H]3[C@H](C2=O)[C@@H]2C=C[C@H]3C2)cc1)C(=O)O)c1c(Cl)cccc1Cl [Example 42] | 560 nM
16 | CC1CCC2C(=O)N(c3ccc(C[C@H](NC(=O)c4c(Cl)cccc4Cl)C(=O)O)cc3)C(=O)C2C1 (some centres unmarked) [Example 43] | 1600 nM
17 | O=C(N[C@@H](Cc1ccc(N2C(=O)[C@@H]3[C@H](C2=O)[C@@H]2C=C[C@H]3CC2)cc1)C(=O)O)c1c(Cl)cccc1Cl [Example 44] | 1400 nM
18 | O=C(N[C@@H](Cc1ccc(N2C(=O)[C@H]3CC=CC[C@H]3C2=O)cc1)C(=O)O)c1c(Cl)cccc1Cl [Example 45] | 1200 nM
19 | O=C(N[C@@H](Cc1ccc(N2C(=O)C3CC3C2=O)cc1)C(=O)O)c1c(Cl)cccc1Cl (some centres unmarked) [Example 46] | 1700 nM
20 | O=C(N[C@@H](Cc1ccc(N2C(=O)[C@H]3CC[C@H](c4ccccc4)C[C@H]3C2=O)cc1)C(=O)O)c1c(Cl)cccc1Cl [Example 47] | 2100 nM
21 | O=C(N[C@@H](Cc1ccc(N2C(=O)CC3(CCCC3)CC2=O)cc1)C(=O)O)c1c(Cl)cccc1Cl [Example 48] | 1300 nM

Now from value to compound:

Row | IC50 | Structure (SMILES)
22 | 2000 nM | CC1(C)[C@H]2CC[C@]1(C)C(=O)N(c1ccc(C[C@H](NC(=O)c3c(Cl)cccc3Cl)C(=O)O)cc1)C2=O [Example 49]
23 | 73 nM | Cc1cccc2c1C(=O)N(c1ccc(C[C@H](NC(=O)c3c(Cl)cncc3Cl)C(=O)O)cc1)C2=O [Example 59]
24 | 410 nM | Nc1cccc2c1C(=O)N(c1ccc(C[C@H](NC(=O)c3c(Cl)cccc3Cl)C(=O)O)cc1)C2=O [Example 71]
25 | 210 nM | CCOc1cccc2c1C(=O)N(c1ccc(C[C@H](NC(=O)c3c(Cl)cccc3Cl)C(=O)O)cc1)C2=O [Example 73]
26 | 1200 nM | O=C(N[C@@H](Cc1ccc(N2C(=O)c3cccc(OCc4ccccc4)c3C2=O)cc1)C(=O)O)c1c(Cl)cccc1Cl [Example 74]
27 | 790 nM | CCCCOc1cccc2c1C(=O)N(c1ccc(C[C@H](NC(=O)c3c(Cl)cccc3Cl)C(=O)O)cc1)C2=O [Example 75]
28 | 770 nM | O=C(N[C@@H](Cc1ccc(N2C(=O)c3ccc(O)cc3C2=O)cc1)C(=O)O)c1c(Cl)cccc1Cl [Example 77]
29 | 520 nM | COc1ccc2c(c1)C(=O)N(c1ccc(C[C@H](NC(=O)c3c(Cl)cccc3Cl)C(=O)O)cc1)C2=O [Example 78]
30 | 570 nM | CCOc1ccc2c(c1)C(=O)N(c1ccc(C[C@H](NC(=O)c3c(Cl)cccc3Cl)C(=O)O)cc1)C2=O [Example 79]
31 | 1100 nM | O=C(N[C@@H](Cc1ccc(N2C(=O)c3ccc(OCc4ccccc4)cc3C2=O)cc1)C(=O)O)c1c(Cl)cccc1Cl [Example 80]
32 | 3500 nM | O=C(N[C@@H](Cc1ccc(N2C(=O)Cc3ccccc3CC2=O)cc1)C(=O)O)c1c(Cl)cccc1Cl [Example 82]
33 | 5.9 nM | Cc1cccc2c1C(=O)N(c1ccc(C[C@H](NC(=O)c3c(Cl)cc(-c4nnn[nH]4)cc3Cl)C(=O)O)cc1)C2=O [Example 83, (2S)-2-(2,6-dichloro-4-tetrazolyl-benzoylamino)-3-[4-(4-methyl-1,3-dioxo-1,3-dihydroisoindole-2-yl)phenyl] Propionic Acid]
34 | 15 nM | Cc1cccc2c1C(=O)N(c1ccc(C[C@H](NC(=O)c3c(Cl)cc(NS(C)(=O)=O)cc3Cl)C(=O)O)cc1)C2=O [Example 84]
35 | 530 nM | CC(=O)C1Cc2ccccc2C(=O)N1c1ccc(C[C@H](NC(=O)c2c(Cl)cccc2Cl)C(=O)O)cc1 (some centres unmarked) [Example 86]
